# What was measured:
# [1] = test system: Healthy subjects, ages 13-18; experiment: Rey-Osterreith Complex Figure Test (ROCFT) / Modified Taylor Complex Figure; type: in vivo, human; parameters: key: raw score: elements correctly recalled, accuracy and placement; conditions: for ROCFT Copy Raw Score V1, Mean / ROCFT Delayed Raw Score V1, Mean / ROCFT Difference Raw Score V1, Mean / ROCFT Immediate Raw Score V1, Mean: Visit 1; for ROCFT V3-V1 Copy Raw Score, Mean / ROCFT V3-V1 Delayed Raw Score, Mean / ROCFT V3-V1 Difference Raw Score, Mean / ROCFT V3-V1 Immediate Raw Score, Mean: Visit difference score
# From the text: Study participants were screened by telephone prior to study enrollment. Healthy subjects, ages 13-18, with no significant medical conditions and no history of co-morbid psychiatric disorder, current Axis I or II diagnosis, or previous participation in a pharmacotherapeutic trial, were selected. Use of any psychotropic medication or any previous head injury resulting in loss of consciousness for 5 or more minutes were used as exclusion criteria. While no participant met criteria for a neuropsychiatric disorder at enrollment, clinical assessments were still completed throughout the study to evaluate changes in mood state. In addition, self-reports of sleep habits, lifestyle, and exercise routines were also administered at baseline as well as at each study visit to assess changes in health habits during study participation. Following the completion of Visit 1 assessment, participants were given their 28-day supply of citicoline (250 mg or 500 mg) or placebo, which was randomly assigned. They were instructed to take one capsule a day every day for the next 28 days. Visit 2 occurred fourteen days after Visit 1. At Visit 2, the remaining study pills were counted and participant dosage calendars were checked to ensure compliance with the protocol. Additional neuropsychological measures and clinical assessments were administered during this visit. Participants returned for Visit 3 fourteen days later, on the 28th day of their study participation. The pill bottle and the dosage calendar were collected from each participant. Urine and blood were again obtained. Participants also participated in similar clinical and neuropsychological testing and clinical measures that were given during visit 1. The ROCFT is an assessment of visuo-organizational ability, visual attention, and visual memory. The participant is asked to copy a complex 2-dimensional figure with the stimulus or complex figure in front of them (Copy Trial), immediately after the stimulus has been removed (Short Delay Trial), and after 30 minutes without the stimulus present (Long Delay Trial). The figure produced at each trial is then evaluated for the strategy used in reproducing the figure, constructional accuracy, and placement of elements within the figure. The Copy, Short Delay, and Long Delay trials are each scored on the number of elements that have been correctly recalled and the accuracy and placement of each element. The Difference Score between immediate and delayed performance scores is a measure of temporary decay for visuospatial memory. This test was administered on both the first and the third visits. The Modified Taylor Complex Figure (MTCF) is an alternate form of the ROCFT to assess visuo-organizational ability, visual attention, and visual memory. The same procedure was used to administer the MTCF. The MTCF was administered at the second visit instead of the ROCFT to minimize the effect of repeat testing on copy and retention of the figure across visits.
# [2] = test system: Healthy subjects, ages 13-18; experiment: Pittsburgh Sleep Quality Index (PSQI); type: in vivo, human; conditions: for PSQI Score, Mean: V3-V1
# From the text: Study participants were screened by telephone prior to study enrollment. Healthy subjects, ages 13-18, with no significant medical conditions and no history of co-morbid psychiatric disorder, current Axis I or II diagnosis, or previous participation in a pharmacotherapeutic trial, were selected. Use of any psychotropic medication or any previous head injury resulting in loss of consciousness for 5 or more minutes were used as exclusion criteria. While no participant met criteria for a neuropsychiatric disorder at enrollment, clinical assessments were still completed throughout the study to evaluate changes in mood state. In addition, self-reports of sleep habits, lifestyle, and exercise routines were also administered at baseline as well as at each study visit to assess changes in health habits during study participation. Following the completion of Visit 1 assessment, participants were given their 28-day supply of citicoline (250 mg or 500 mg) or placebo, which was randomly assigned. They were instructed to take one capsule a day every day for the next 28 days. Visit 2 occurred fourteen days after Visit 1. At Visit 2, the remaining study pills were counted and participant dosage calendars were checked to ensure compliance with the protocol. Additional neuropsychological measures and clinical assessments were administered during this visit. Participants returned for Visit 3 fourteen days later, on the 28th day of their study participation. The pill bottle and the dosage calendar were collected from each participant. Urine and blood were again obtained. Participants also participated in similar clinical and neuropsychological testing and clinical measures that were given during visit 1. The PSQI is a self-report sleep questionnaire designed to assess usual sleep habits during the past month. The PSQI was administered at each of the three study visits to assess alterations to sleep quality during the 28 days of study participation.
smiles,measurement,setting,value
"C[N+](C)(C)CCOP(=O)(O)OP(=O)([O-])OC[C@H]1O[C@@H](n2ccc(N)nc2=O)[C@H](O)[C@@H]1O [citicoline, Cytidine 5′-diphosphocholine]","ROCFT Copy Raw Score V1, Mean",[1]; 250 mg/day group,29.72
same,"ROCFT Delayed Raw Score V1, Mean",[1]; 250 mg/day group,21.63
same,"ROCFT Difference Raw Score V1, Mean",[1]; 250 mg/day group,-0.24
same,"ROCFT Immediate Raw Score V1, Mean",[1]; 250 mg/day group,21.39
same,"ROCFT V3-V1 Copy Raw Score, Mean",[1]; 250 mg/day group,0.28
same,"ROCFT V3-V1 Delayed Raw Score, Mean",[1]; 250 mg/day group,3.80
same,"ROCFT V3-V1 Difference Raw Score, Mean",[1]; 250 mg/day group,1.35
same,"ROCFT V3-V1 Immediate Raw Score, Mean",[1]; 250 mg/day group,5.15
same,"ROCFT Copy Raw Score V1, Mean",[1]; 500 mg/day group,29.13
same,"ROCFT Delayed Raw Score V1, Mean",[1]; 500 mg/day group,19.00
same,"ROCFT Difference Raw Score V1, Mean",[1]; 500 mg/day group,0.44
same,"ROCFT Immediate Raw Score V1, Mean",[1]; 500 mg/day group,19.48
same,"ROCFT V3-V1 Copy Raw Score, Mean",[1]; 500 mg/day group,0.27
same,"ROCFT V3-V1 Delayed Raw Score, Mean",[1]; 500 mg/day group,5.31
same,"ROCFT V3-V1 Difference Raw Score, Mean",[1]; 500 mg/day group,0.13
same,"ROCFT V3-V1 Immediate Raw Score, Mean",[1]; 500 mg/day group,5.40
same,"PSQI, Mean","[2]; 250 mg/day, V1 (baseline)",3.41
same,"PSQI, Mean","[2]; 250 mg/day, V3 (day 28)",2.59
same,"PSQI Score, Mean",[2]; 250 mg/day,-0.81
same,"PSQI, Mean","[2]; 500 mg/day, V1 (baseline)",3.38
same,"PSQI, Mean","[2]; 500 mg/day, V3 (day 28)",2.46
same,"PSQI Score, Mean",[2]; 500 mg/day,-0.92

# — patent US20230181614A1, “ADMINISTRATION OF CITICOLINE TO IMPROVE COGNITIVE PERFORMANCE, ATTENTIONAL PERFORMANCE, AND MOTOR FUNCTION” (KYOWA HAKKO BIO CO., LTD., priority 2014, published 2023)
